Reference: PMC11350758, “Development of Xanthoangelol-Derived Compounds with Membrane-Disrupting Effects against Gram-Positive Bacteria” (Antibiotics, 2024)
Converted amounts (≈) assume the structure as drawn.

Assays:
[1] = test system: S. aureus; experiment: MIC, summary over the S. aureus strains tested; format: cell-based; details: Staphylococcus aureus; over the three S. aureus strains tested; read-out: MICs against S. aureus
Procedure: (§1) All target derivatives were assessed for their in vitro antibacterial activities using a broth microdilution assay to test their minimum inhibitory concentrations (MICs) against six Gram-positive strains (S. aureus ATCC31007, S. aureus ATCC25923, S. aureus ATCC43300, E. faecalis ATCC29212, B. subtilis ATCC9372, and S. epidermidis ATCC12228) and four Gram-negative strains (A. baumannii ATCC19606, K. pneumonia ATCC10031, E. coli ATCC25922, and P. aeruginosa ATCC27853). These compounds were also evaluated for their hemolytic activities and membrane selectivity by determining their HC50 (the concentration required to lyse 50% of red blood cells) and SI (HC50/MICs) values, respectively, and vancomycin was used as the positive drug.
(§2) MICs of the derivatives were determined by the micro broth dilution method according to the American Clinical and Laboratory Standards Institute (CLSI) standards. Briefly, 2-fold serial dilutions of target compounds were prepared in 96-well plates containing TSB broth. An equal volume of bacterial suspension (10^6 CFU/mL) was then pipetted into each well, and the mixture was incubated at 37 °C for 24 h. […] All biological experiments were repeated three times.

[2] = test system: Bacillus subtilis ATCC9372, penicillin-susceptible strain; experiment: MIC, broth microdilution; format: cell-based; details: Bacillus subtilis ATCC9372; read-out: MIC B. s. 9372
Procedure: as §1, §2

[3] = test system: Staphylococcus aureus ATCC25923, erythromycin-susceptible strain; experiment: MIC, broth microdilution; format: cell-based; details: Staphylococcus aureus ATCC25923; read-out: MIC S. a. 25923
Procedure: as §1, §2

[4] = test system: Enterococcus faecalis ATCC29212, vancomycin-susceptible strain; experiment: MIC, broth microdilution; format: cell-based; details: Enterococcus faecalis ATCC29212; read-out: MIC E. f. 29212
Procedure: as §1, §2

[5] = test system: Klebsiella pneumonia ATCC10031; experiment: MIC, broth microdilution; format: cell-based; details: Klebsiella pneumoniae; Klebsiella pneumonia ATCC10031; read-out: MIC K. p. 10031
Procedure: as §1, §2

[6] = test system: Escherichia coli ATCC25922, penicillin-susceptible strain; experiment: MIC, broth microdilution; format: cell-based; details: Escherichia coli ATCC25922; read-out: MIC E. c. 25922
Procedure: as §1, §2

[7] = test system: Staphylococcus aureus ATCC31007, penicillin-resistant strain; experiment: MIC, broth microdilution; format: cell-based; details: Staphylococcus aureus ATCC31007; read-out: MIC S. a. 31007
Procedure: as §1, §2

[8] = test system: Acinetobacter baumannii ATCC19606; experiment: MIC, broth microdilution; format: cell-based; details: Acinetobacter baumannii ATCC19606; read-out: MIC A. b. 19606
Procedure: as §1, §2

[9] = test system: Staphylococcus epidermidis ATCC12228, erythromycin-susceptible strain; experiment: MIC, broth microdilution; format: cell-based; details: Staphylococcus epidermidis ATCC12228; read-out: MIC S. e. 12228
Procedure: as §1, §2

[10] = test system: Pseudomonas aeruginosa ATCC27853, penicillin-susceptible strain; experiment: MIC, broth microdilution; format: cell-based; details: Pseudomonas aeruginosa ATCC27853; read-out: MIC P. a. 27853
Procedure: as §1, §2

[11] = test system: Staphylococcus aureus ATCC43300, methicillin-resistant strain; experiment: microbe, parasite or virus in culture; format: cell-based; details: ATCC 43300 / MRSA; Staphylococcus aureus ATCC43300 (MRSA); read-out: MIC S. a 43300
Procedure: as §1, §2

[12] = test system: red blood cells; experiment: Hemolysis assay; format: cell-based, Sheep; details: concentration required to lyse 50% of red blood cells; 37 °C, 1 h
Procedure: as §1
To further detect the hemolytic toxicity and therapeutic potential of these derivatives, we proceeded to examine the hemolytic activities and membrane selectivity of these derivatives. The HC50 value was defined as the concentration needed for a compound to lyse 50% of red blood cells, and it is often used to evaluate the hemolytic toxicity to eukaryotic cells. […] The selectivity index (SI) was calculated by HC50/MICs of S. aureus ATCC43300 and was used to assess the potency and safety of the compounds. […] Thus, compound 9h was selected as a representative molecule for the in-depth in vitro and in vivo studies.
Sheep blood was used to isolate red blood cells (RBCs), which were then resuspended in 1× PBS (5%). The compounds were dissolved in PBS to give an initial concentration of 5.12 mg/mL, compound solution (100 μL) was added to the first well of a 96-well plate, two-fold serial dilutions of compounds were prepared in 96-well plates, and then 150 μL of 5% RBC suspension was added to each well. This was followed by incubation at 37 °C for 1 h. After incubation, the plate was centrifuged (3500 rpm, 5 min), and 100 μL of supernatant solution from each well was carefully pipetted into a new plate. The absorbance values were measured at 540 nm. Erythrocyte hemolysis rate = (Absorbancecompound – Absorbance negative control)/(Absorbance1% Triton X-100 − Absorbance negative control) × 100%. All biological experiments were repeated three times.

[13] = test system: Enterococcus faecalis ATCC51299, vancomycin-resistant strain; experiment: MIC, broth microdilution; format: cell-based; details: Enterococcus faecalis ATCC51299, vancomycin-resistant; read-out: MIC E. f. 51299
Procedure: as §2

[14] = test system: Enterococcus faecium ATCC51559, vancomycin-resistant strain; experiment: MIC, broth microdilution; format: cell-based; details: Enterococcus faecium ATCC51559, vancomycin-resistant; read-out: MIC E. f. 51559
Procedure: as §2

[15] = test system: Gram-positive strains tested; experiment: MIC, summary over the Gram-positive strains tested; format: cell-based; details: read-out: MICs against the Gram-positive strains tested, range over the Gram-positive panel
Procedure: as §1, §2

SMILES | MIC [1] [µg/mL] | MIC [2] [µg/mL] | MIC [3] [µg/mL] | MIC [4] [µg/mL] | MIC [5] [µg/mL] | MIC [6] [µg/mL] | MIC [7] [µg/mL] | MIC [8] [µg/mL] | MIC [9] [µg/mL] | MIC [10] [µg/mL] | MIC [11] [µg/mL] | HC50 [12] [µg/mL] | MIC [13] [µg/mL] | MIC [14] [µg/mL] | MIC [15] [µg/mL]
CCN(CC)CCCOc1c2c(c3c(c1C(C)=O)OC(C)(CCC=C(C)C)C=C3)OC(C)(CCC=C(C)C)C=C2 (stereo not drawn) [Compound 9c, 1-(5-(3-(Diethylamino)propoxy)-2,8-dimethyl-2,8-bis(4-methylpent-3-en-1-yl)-2H,8H-pyrano[2,3-f]chromen-6-yl)ethan-1-one] | 2 to 4 (≈ 3.64 to 7.28 µM) | 2 (≈ 3.64 µM) | 2 (≈ 3.64 µM) | 1 (≈ 1.82 µM) | > 128 | > 128 | 2 (≈ 3.64 µM) | > 128 | 1 (≈ 1.82 µM) | > 128 | 4 (≈ 7.28 µM) | 187.6 | 8 (≈ 14.6 µM) | 4 (≈ 7.28 µM) | 
CC(=O)c1c(OCCCSC(=N)N)c2c(c3c1OC(C)(CCC=C(C)C)C=C3)OC(C)(CCC=C(C)C)C=C2 (stereo not drawn) [Compound 9e, 2-(3-((6-Acetyl-2,8-dimethyl-2,8-bis(4-methylpent-3-en-1-yl)-2H,8H-pyrano[2,3-f]chromen-5-yl)oxy)propyl)isothiouronium] |  | 64 (≈ 116 µM) | 8 (≈ 14.5 µM) | 64 (≈ 116 µM) | > 128 | > 128 | 128 (≈ 232 µM) | > 128 | 128 (≈ 232 µM) | > 128 | 64 (≈ 116 µM) | >1280 | > 128 | > 128 | > 64
CC(=O)c1c(OCCCN2CC(C)OC(C)C2)c2c(c3c1OC(C)(CCC=C(C)C)C=C3)OC(C)(CCC=C(C)C)C=C2 (stereo not drawn) [Compound 9d, 1-(5-(3-(2,6-Dimethylmorpholino)propoxy)-2,8-dimethyl-2,8-bis(4-methylpent-3-en-1-yl)-2H,8H-pyrano[2,3-f]chromen-6-yl)ethan-1-one] |  | > 128 | > 128 | > 128 | > 128 | > 128 | > 128 | > 128 | > 128 | > 128 | > 128 | >1280 | > 128 | > 128 | > 64
